According to ChEMBL document CHEMBL1201862, “PubChem BioAssay data set” (2004):
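All cell lines were grown in 96-well plates and treated with compound for 48 hours. At the GI50, growth is halved.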 Calls of active or inactive are those of the source. No stated cut-off is given here; in the data, active = GI50 up to about 1.1 µM and inactive = higher.

How the values were obtained:
Assay in all cases: DTP human tumour cell line panel, 48 h
DLD-1 = system: DLD-1
DMS-114 = system: DMS-114
DMS-273 = system: DMS-273
HOP-18 = system: HOP-18
KM-20L2 = system: KM-20L2
LXFL 529 = system: LXFL 529
M19-MEL = system: M19-MEL
RXF 631 = system: RXF 631
XF498 = system: XF498

SMILES	GI50 (DLD-1)	GI50 (DMS-114)	GI50 (DMS-273)	GI50 (HOP-18)	GI50 (KM-20L2)	GI50 (LXFL 529)	GI50 (M19-MEL)	GI50 (RXF 631)	GI50 (XF498)
CCCC/C=C1/CCC(CN(C)C)C1=O (stereo unspecified)	0.863 µM (active)	1.29 µM (inactive)	2.71 µM (inactive)	2.22 µM (inactive)	2.54 µM (inactive)	0.625 µM (active)	1.41 µM (inactive)	1.65 µM (inactive)	
Nc1c2ccccc2nc2c(C(=O)Nc3ccc(S(N)(=O)=O)cc3)cccc12	> 100 µM (inactive)	> 100 µM (inactive)	52.8 µM (inactive)		> 100 µM (inactive)	45.2 µM (inactive)	60 µM (inactive)		72.3 µM (inactive)
O=S1(=O)CCC2=CC(C(F)(F)F)=CC(C(F)(F)F)=CN21	0.339 µM (active)	1.37 µM (inactive)	0.767 µM (active)	3.35 µM (inactive)	2.11 µM (inactive)	0.435 µM (active)	1.41 µM (inactive)	1.95 µM (inactive)	1.79 µM (inactive)
CC(=O)O[C@@]1(C)[C@@H](C)C(=O)O[C@@H]2CCN3CC=C(COC(=O)[C@]1(C)O)[C@H]23	> 100 µM (inactive)	> 100 µM (inactive)	> 100 µM (inactive)		> 100 µM (inactive)	> 100 µM (inactive)	> 100 µM (inactive)		
O=C1C[C@H]2CCCN2[C@@H](c2ccccc2)C1			> 100 µM (inactive)	> 100 µM (inactive)	> 100 µM (inactive)	> 100 µM (inactive)	> 100 µM (inactive)	> 100 µM (inactive)	> 100 µM (inactive)
COc1ccccc1NC(=O)CC(=O)N1N=C(c2ccccc2)C(/N=N/c2ccc(Cl)cc2)C1=O (stereo unspecified)	49.7 µM (inactive)	70.1 µM (inactive)	34.8 µM (inactive)		71.8 µM (inactive)	47.6 µM (inactive)	57.1 µM (inactive)	44.1 µM (inactive)	38.5 µM (inactive)
Cc1nc2sccn2c1C(=O)NC(=O)Nc1ccc(Cl)cc1	> 100 µM (inactive)	50.5 µM (inactive)	74.1 µM (inactive)		> 100 µM (inactive)	> 100 µM (inactive)	> 100 µM (inactive)		19.2 µM (inactive)
CC[C@@]1(O)C(=O)OCc2c1cc1n(c2=O)Cc2cc3cc(O)ccc3nc2-1 [HYDROXYCAMPTOTHECIN]	1.2 µM (inactive)	0.0136 µM (active)		0.109 µM (active)	0.0834 µM (active)	0.15 µM (active)	0.0513 µM (active)		0.0262 µM (active)
CCc1ccccc1NC(=O)/C(=N/O)C(C)=O	> 100 µM (inactive)	> 100 µM (inactive)	> 100 µM (inactive)	> 100 µM (inactive)	> 100 µM (inactive)	> 100 µM (inactive)	> 100 µM (inactive)	> 100 µM (inactive)	> 100 µM (inactive)
COc1cc(CCCC(O)COc2cccc3c2C2(O)CCCCCC32)cc(OC)c1 (stereo unspecified)	20.1 µM (inactive)	11.4 µM (inactive)	20.5 µM (inactive)	16 µM (inactive)	14.1 µM (inactive)	16.5 µM (inactive)	17 µM (inactive)		19.9 µM (inactive)
CCOC(=N)CC(=O)Nc1cccc(Cl)c1	> 100 µM (inactive)		> 100 µM (inactive)		> 100 µM (inactive)	> 100 µM (inactive)	> 100 µM (inactive)	> 100 µM (inactive)	> 100 µM (inactive)
CN(CN1C(=O)C2Cc3ccccc3CN2C1=O)c1ccccn1 (stereo unspecified)	> 100 µM (inactive)	> 100 µM (inactive)	> 100 µM (inactive)		> 100 µM (inactive)	> 100 µM (inactive)	> 100 µM (inactive)		> 100 µM (inactive)
COc1ccc(/C=C(/C(=O)O)c2cc(OC)c(OC)c(OC)c2)cc1	41.2 µM (inactive)	40.2 µM (inactive)	31.6 µM (inactive)		22.2 µM (inactive)	69.2 µM (inactive)	79.8 µM (inactive)	46.8 µM (inactive)	
NC(=O)C(c1ccccc1)N1CCOCC1 (stereo unspecified)	> 100 µM (inactive)	> 100 µM (inactive)	> 100 µM (inactive)	> 100 µM (inactive)	> 100 µM (inactive)	> 100 µM (inactive)	> 100 µM (inactive)		
N=C(c1ccccc1)N(c1ccccc1)c1ccccc1	63.5 µM (inactive)		42.5 µM (inactive)	0.0415 µM (active)	> 100 µM (inactive)	21.6 µM (inactive)	> 100 µM (inactive)		
COc1cc2c(cn1)[nH]c1ccccc12	> 100 µM (inactive)	81.5 µM (inactive)	> 100 µM (inactive)	> 100 µM (inactive)	> 100 µM (inactive)	72.3 µM (inactive)		> 100 µM (inactive)	35.8 µM (inactive)
CC1=CC2CC(C)=C(CC[C@]3(C)CC[C@H]([C@@H](C)C(=O)O)OO3)C(C)(C)C2CC1 (stereo partly specified)	0.201 µM (active)	0.376 µM (active)	0.528 µM (active)	0.158 µM (active)	1.29 µM (inactive)	0.193 µM (active)	1.63 µM (inactive)	1.48 µM (inactive)	
CC1=C(C(=O)Nc2ccccc2C)C(c2ccccc2)C(C(=O)Nc2ccccc2C)=C(C)N1	41 µM (inactive)	30.4 µM (inactive)	49.5 µM (inactive)	36.6 µM (inactive)	42.2 µM (inactive)	30.5 µM (inactive)	37.2 µM (inactive)		23.1 µM (inactive)
Nc1ccc2ncc(NCc3ccc(F)cc3)nc2c1	> 100 µM (inactive)	49 µM (inactive)	> 100 µM (inactive)	> 100 µM (inactive)	> 100 µM (inactive)	> 100 µM (inactive)	> 100 µM (inactive)		19.5 µM (inactive)
O=C(Cc1nc2ccccc2s1)C(=O)Nc1cccc(Cl)c1	> 100 µM (inactive)	> 100 µM (inactive)	> 100 µM (inactive)		> 100 µM (inactive)	> 100 µM (inactive)	> 100 µM (inactive)	> 100 µM (inactive)	> 100 µM (inactive)
Nc1nc(-c2ccccc2)cc(-c2ccccc2O)n1	23.9 µM (inactive)	35.2 µM (inactive)	32 µM (inactive)	> 100 µM (inactive)	30.2 µM (inactive)	30.8 µM (inactive)	43.1 µM (inactive)	34.1 µM (inactive)	> 100 µM (inactive)
O=CC1=CCCC2(C1)OCCO2	> 100 µM (inactive)	> 100 µM (inactive)	> 100 µM (inactive)			> 100 µM (inactive)	> 100 µM (inactive)	> 100 µM (inactive)	> 100 µM (inactive)
CC1(C)N=C(c2ccccn2)C(c2ccccn2)=NC1(C)C	> 100 µM (inactive)	> 100 µM (inactive)	> 100 µM (inactive)		> 100 µM (inactive)	> 100 µM (inactive)	> 100 µM (inactive)	> 100 µM (inactive)	> 100 µM (inactive)
CC1CCCP(=O)(c2ccccc2)CCC1 (stereo unspecified)	> 100 µM (inactive)	> 100 µM (inactive)	> 100 µM (inactive)	69 µM (inactive)	> 100 µM (inactive)	> 100 µM (inactive)	> 100 µM (inactive)	> 100 µM (inactive)	> 100 µM (inactive)
COc1cccc(NC(=O)CC(=O)N2NC(C)C(/N=N/c3cccc(C(=O)O)c3)C2=O)c1 (stereo unspecified)	> 100 µM (inactive)	> 100 µM (inactive)	> 100 µM (inactive)	17.9 µM (inactive)	> 100 µM (inactive)	> 100 µM (inactive)	> 100 µM (inactive)	> 100 µM (inactive)	
